{"source": "patent US20240300980A1", "about": "“HETEROCYCLIC COMPOUNDS AS KRAS INHIBITOR, AND PREPARATION THEREFOR AND USE THEREOF IN TREATMENT” (SHANGHAI KECHOW PHARMA, INC., priority 2021, published 2024)", "data": [{"test_system": "AGS cells (KRAS^G12D)", "assay": "Detection of cell proliferation in vitro by MTT/MTS method (cell activity experiment)", "format": "cell-based", "settings": "Homo sapiens, AGS, 72 h, AGS cells; MTT/MTS; 3 days of drug treatment; read-out: AGS IC50", "outline": "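After 3-day compound exposure (final DMSO 0.5%), viability of AGS (KRAS G12D) cells, plated 1000/well one day before dosing, was measured at 490 nm following 4 h MTT or MTS incubation. IC50 was fitted from dose–effect curves relative to DMSO-treated wells.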", "units": {"IC50": "nM"}, "values": [{"smiles": "CCc1ccc2cc(O)cc(-c3c4c(c5c(N6C[C@H]7CC[C@@H](C6)N7)nc(OC[C@@]67CCCN6C[C@H](F)C7)nc5c3F)OCO4)n12", "note": "[Example 397, 5-(9-((1R,5S)-3,8-diazabicyclo[3.2.1]octan-3-yl)-5-fluoro-7-(((2R,7aS)-2-fluorotetrahydro-1H-pyrrolizin-7a(5H)-yl)methoxy)-[1,3]dioxolo[4,5-f]quinazolin-4-yl)-3-ethylindolizin-7-ol]", "IC50": 70}, {"smiles": "Oc1cc(-c2ncc3c(C4C[C@H]5CC[C@@H](C4)N5)nc(OC[C@@]45CCCN4C[C@H](F)C5)nc3c2F)c2c(F)c(F)ccc2c1", "note": "(stereo partly drawn) [Example 78, 4-(4-((1R,5S)-8-azabicyclo[3.2.1]octan-3-yl)-8-fluoro-2-(((2R,7aS)-2-fluorotetrahydro-1H-pyrrolizin-7a(5H)-yl)methoxy)pyrido[4,3-d]pyrimidin-7-yl)-5,6-difluoronaphthalen-2-ol]", "IC50": "> 2500"}, {"smiles": "CC1CCCc2cc(O)cc(-c3ccc4c(NCC5(N(C)C)CCC5)nc(OC[C@@]56CCCN5C[C@H](F)C6)nc4c3F)c21", "note": "(stereo partly drawn) [Example 427, 4-(4-(((1-(dimethylamino)cyclobutyl)methyl)amino)-8-fluoro-2-(((2R,7aS)-2-fluorotetrahydro-1H-pyrrolizin-7a(5H)-yl)methoxy)quinazolin-7-yl)-5-methyl-5,6,7,8-tetrahydronaphthalen-2-ol]", "IC50": 55}, {"smiles": "CCC1CCCc2cc(O)cc(-c3ncc4c(N5C[C@H]6CC[C@@H](C5)N6)nc(OC[C@@]56CCCN5C[C@H](F)C6)nc4c3F)c21", "note": "(stereo partly drawn) [Example 227, 4-(4-((1R,5S)-3,8-diazabicyclo[3.2.1]octan-3-yl)-8-fluoro-2-(((2R,7aS)-2-fluorotetrahydro-1H-pyrrolizin-7a(5H)-yl)methoxy)pyrido[4,3-d]pyrimidin-7-yl)-5-ethyl-5,6,7,8-tetrahydronaphthalen-2-ol]", "IC50": 5}, {"smiles": "C#Cc1c(F)ccc2cc(O)cc(-c3ncc4c(N5CCC(C#N)CC5)nc(OC[C@@]56CCCN5C[C@H](F)C6)nc4c3F)c12", "note": "[Example 68, 1-(7-(8-ethynyl-7-fluoro-3-hydroxynaphthalen-1-yl)-8-fluoro-2-(((2R, 7aS)-2-fluorotetrahydro-1H-pyrrolizin-7a(5H)-yl)methoxy)pyrido[4,3-d]pyrimidin-4-yl)piperidine-4-carbonitrile]", "IC50": 1290}, {"smiles": "C#Cc1cccc2cc(O)cc(-c3ccc4c(N5C[C@H]6CC[C@@H](C5)O6)nc(OC[C@@]56CCCN5C[C@H](F)C6)nc4c3F)c12", "note": "[Example 157, 4-(4-((1R,5S)-8-oxa-3-azabicyclo[3.2.1]octan-3-yl)-8-fluoro-2-(((2R,7aS)-2-fluorotetrahydro-1H-pyrrolizin-7a(5H)-yl)methoxy)quinazolin-7-yl)-5-ethynylnaphthalen-2-ol]", "IC50": 330}, {"smiles": "C#Cc1c(F)ccc2cc(O)cc(-c3ncc4c(N5CC6CCC(C5)C6S(=O)(=O)C(F)(F)F)nc(OC[C@@]56CCCN5C[C@H](F)C6)nc4c3F)c12", "note": "(stereo partly drawn) [Example 67, 5-ethynyl-6-fluoro-4-(8-fluoro-2-(((2R,7aS)-2-fluorotetrahydro-1H-pyrrolizin-7a(5H)-yl)methoxy)-4-((1R,5S, 8R)-8-((trifluoromethyl)sulfonyl)-3-azabicyclo[3.2.1]octan-3-yl)pyrido[4,3-d]pyrimidin-7-yl)naphthalen-2-ol]", "IC50": "> 10000"}, {"smiles": "C#Cc1c(F)ccc2cc(O)cc(-c3ncc4c(N5C[C@H]6CC[C@@H](C5)S6)nc(OC[C@@]56CCCN5C[C@H](F)C6)nc4c3F)c12", "note": "[Example 21, 4-(4-((1R,5S)-8-thia-3-azabicyclo[3.2.1]octan-3-yl)-8-fluoro-2-(((2R,7aS)-2-fluorotetrahydro-1H-pyrrolizin-7a(5H)-yl)methoxy)pyrido[4,3-d]pyrimidin-7-yl)-5-ethynyl-6-fluoronaphthalen-2-ol]", "IC50": 269}, {"smiles": "Oc1cc(-c2ccc3c(N4C[C@H]5CC[C@@H](C4)N5)nc(OC[C@@]45CCCN4C[C@H](F)C5)nc3c2F)c2c(F)cccc2c1", "note": "[Example 95, 4-(4-((1R,5S)-3,8-diazabicyclo[3.2.1]octan-3-yl)-8-fluoro-2-(((2R,7aS)-2-fluorotetrahydro-1H-pyrrolizin-7a(5H)-yl)methoxy)quinazolin-7-yl)-5-fluoronaphthalen-2-ol]", "IC50": 13.5}, {"smiles": "C#Cc1c(F)ccc2cc(N)nc(-c3ncc4c(N5C[C@H]6CC[C@@H](C5)N6)nc(OC[C@@]56CCCN5C[C@H](F)C6)nc4c3F)c12", "note": "[Example 40, 1-(4-((1R,5S)-3,8-diazabicyclo[3.2.1]octan-3-yl)-8-fluoro-2-(((2R,7aS)-2-fluorotetrahydro-1H-pyrrolizin-7a(5H)-yl)methoxy)pyrido[4,3-d]pyrimidin-7-yl)-8-ethynyl-7-fluoroisoquinolin-3-amine]", "IC50": "> 2500"}, {"smiles": "C#Cc1c(F)ccc2cc(O)cc(-c3ncc4c(N5C[C@H]6CC[C@@H](C5)N6)nc(OCC56CCCC5N(C)CC6)nc4c3F)c12", "note": "(stereo partly drawn) [Example 74, 4-(4-((1R,5S)-3,8-diazabicyclo [3.2.1]octan-3-yl)-8-fluoro-2-((1-methylhexahydrocyclo-penta[b]pyrrol-3a(1H)-yl)methoxy)pyrido[4,3-d]pyrimidin-7-yl)-5-ethynyl-6-fluoronaphthalen-2-ol]", "IC50": "> 2500"}, {"smiles": "C#Cc1c(F)ccc2cc(O)cc(-c3ccc4c(N5CC6CCC5CN6)nc(OC[C@@]56CCCN5C[C@H](F)C6)nc4c3F)c12", "note": "(stereo partly drawn) [Example 108, 4-(4-(2,5-diazabicyclo [2.2.2]octan-2-yl)-8-fluoro-2-(((2R,7aS)-2-fluorotetrahydro-1H-pyrrolizin-7a(5H)-yl)methoxy)quinazolin-7-yl)-5-ethynyl-6-fluoronaphthalen-2-ol]", "IC50": 40.5}, {"smiles": "C#Cc1c(F)ccc2cc(O)cc(-c3ncc4c(N5CC(C#N)C5)nc(OC[C@@]56CCCN5C[C@H](F)C6)nc4c3F)c12", "note": "[Example 69, 1-(7-(8-ethynyl-7-fluoro-3-hydroxynaphthalen-1-yl)-8-fluoro-2-(((2R, 7aS)-2-fluorotetrahydro-1H-pyrrolizin-7a(5H)-yl)methoxy)pyrido[4,3-d]pyrimidin-4-yl) azetidine-3-carbonitrile]", "IC50": 411}, {"smiles": "[O-][S+]1C2CCC1CN(c1nc(OC[C@@]34CCCN3C[C@H](F)C4)nc3c(F)c(-c4cc(O)cc5cccc(F)c45)ccc13)C2", "note": "(stereo partly drawn) [Example 168, (1R,5S,8R)-3-(8-fluoro-7-(8-fluoro-3-hydroxynaphthalen-1-yl)-2-(((2R,7aS)-2-fluorotetrahydro-1H-pyrrolizin-7a(5H)-yl)methoxy)quinazolin-4-yl)-8-thia-3-azabicyclo[3.2.1]octane 8-oxide]", "IC50": "> 2500"}, {"smiles": "CC1CCCc2cc(O)cc(-c3c(F)c4nc(OC[C@@]56CCCN5C[C@H](F)C6)nc(N5C[C@H]6CC[C@@H](C5)N6)c4c4nccn34)c21", "note": "(stereo partly drawn) [Example 414, 4-(10-((1R,5S)-3,8-diazabicyclo[3.2.1]octan-3-yl)-6-fluoro-8-(((2R,7aS)-2-fluorotetrahydro-1H-pyrrolizin-7a(5H)-yl)methoxy)imidazo[1′,2′:1,2]pyrido[4,3-d]pyrimidin-5-yl)-5-methyl-5,6,7,8-tetrahydronaphthalen-2-ol]", "IC50": 45}, {"smiles": "CCCC1CCc2cc(O)cc(-c3ncc4c(N5C[C@H]6CC[C@@H](C5)N6)nc(OC[C@@]56CCCN5C[C@H](F)C6)nc4c3F)c21", "note": "(stereo partly drawn) [Example 242, 7-(4-((1R,5S)-3,8-diazabicyclo[3.2.1]octan-3-yl)-8-fluoro-2-(((2R,7aS)-2-fluorotetrahydro-1H-pyrrolizin-7a(5H)-yl)methoxy)pyrido[4,3-d]pyrimidin-7-yl)-1-propyl-2,3-dihydro-1H-inden-5-ol]", "IC50": 34}, {"smiles": "C#Cc1c(F)ccc2cc(O)cc(-c3ncc4c(N5CC6CCNC6C5)nc(OC[C@@]56CCCN5C[C@H](F)C6)nc4c3F)c12", "note": "(stereo partly drawn) [Example 54, 5-ethynyl-6-fluoro-4-(8-fluoro-2-(((2R,7aS)-2-fluorotetrahydro-1H-pyrrolizin-7a(5H)-yl)methoxy)-4-(hexahydropyrrolo[3,4-b]pyrrol-5(1H)-yl)pyrido [4,3-d]pyrimidin-7-yl) naphthalen-2-ol]", "IC50": "> 2500"}, {"smiles": "C#Cc1cccc2cc(O)cc(-c3ccc4c(N5C[C@H]6CC[C@@H](C5)N6)c(C#N)c(OC[C@@]56CCCN5C[C@H](F)C6)nc4c3)c12", "note": "[Example 173, 4-((1R,5S)-3,8-diazabicyclo[3.2.1]octan-3-yl)-7-(8-ethynyl-3-hydroxynaphthalen-1-yl)-2-(((2R,7aS)-2-fluorotetrahydro-1H-pyrrolizin-7a(5H)-yl)methoxy)quinoline-3-carbonitrile]", "IC50": 1450}, {"smiles": "Oc1cc(C2=C(F)c3nc(OC[C@@]45CCCN4C[C@H](F)C5)nc(N4C[C@H]5CC[C@@H](C4)N5)c3C3=NCCN32)c2ccccc2c1", "note": "[Example 401, 4-(10-((1R,5S)-3,8-diazabicyclo[3.2.1]octan-3-yl)-6-fluoro-8-(((2R,7aS)-2-fluorotetrahydro-1H-pyrrolizin-7a(5H)-yl)methoxy)-2,3-dihydroimidazo[1′,2′:1,2]pyrido[4,3-d]pyrimidin-5-yl)naphthalen-2-ol]", "IC50": 100}, {"smiles": "Oc1cc2c(c(-c3ncc4c(N5C[C@H]6CC[C@@H](C5)N6)nc(OC[C@@]56CCCN5C[C@H](F)C6)nc4c3F)c1)C1CC1C2", "note": "(stereo partly drawn) [Example 73, 2-(4-((1R,5S)-3,8-diazabicyclo[3.2.1]octan-3-yl)-8-fluoro-2-(((2R,7aS)-2-fluorotetrahydro-1H-pyrrolizin-7a(5H)-yl)methoxy)pyrido[4,3-d]pyrimidin-7-yl)-1,1a, 6,6a-tetrahydrocyclopropa [a]inden-4-ol]", "IC50": 16.9}, {"smiles": "CC1CCCc2cc(O)cc(-c3c(F)c4nc(OC[C@@]56CCCN5C[C@H](F)C6)nc(N5C[C@H]6CC[C@@H](C5)N6)c4c4cncn34)c21", "note": "(stereo partly drawn) [Example 417, 4-(1-((1R,5S)-3,8-diazabicyclo[3.2.1]octan-3-yl)-5-fluoro-3-(((2R,7aS)-2-fluorotetrahydro-1H-pyrrolizin-7a(5H)-yl)methoxy)imidazo[1′,5′:1,2]pyrido[4,3-d]pyrimidin-6-yl)-5-methyl-5,6,7,8-tetrahydronaphthalen-2-ol]", "IC50": 35}]}]}
